{
  "source": "patent US12642786B2",
  "about": "“Methods, compositions and kits for treating multiple sclerosis and other disorders” (The Johns Hopkins University, priority 2018, dated 2026)",
  "key": {"[1]": {"test_system": "EAE (MOG35-55 immunized mice)", "assay": "EAE prevention paradigm, clinical scoring", "format": "in vivo, C57BL/6J mice", "conditions": "30 μg/kg i.p. 3 d per week from day of MOG35-55 immunization (day 0)", "excerpt": "Experimental autoimmune encephalomyelitis (EAE) is an experimental animal model that recapitulates some aspects of MS. In the active-induction model of mouse EAE, mice are immunized with a peptide derived from myelin oligodendrocyte glycoprotein (MOG35-55), resulting in robust CNS inflammation causing demyelination, axonal injury, and motor weakness/paralysis.\n(§1) Active EAE was induced in 8-12 wk-old female C57BL/6J mice that had been allowed to acclimatize to the animal facility for at least 1 wk. MOG35-55 peptide dissolved in PBS at a concentration of 2 mg/mL was mixed 1:1 with complete Freund's adjuvant to make an emulsion. On day 0, mice were immunized by injecting 50 μL of the emulsion s.c. into each of two sites on the lateral abdomen. In addition, on day 0 and again on day 2, mice were injected intraperitoneally with 250 ng pertussis toxin. Mice were weighed and scored beginning on day 7 post-immunization. Scoring was performed in a blinded manner according to the following scale:\nBryo-1 was prepared by initially dissolving in 100% ethanol and then further diluting to 20% ethanol and 1% DMSO in PBS. The final concentration of bryo-1 was […] Mice were treated by i.p. injection of […] bryo-1 or an equal volume of vehicle control (20% ethanol and 1% DMSO in PBS) 3 d per week (Monday, Wednesday, Friday). […]"}, "naive CD4+ lymphocytes": {"test_system": "naive CD4+ lymphocytes", "assay": "Naive CD4+ T cells stimulated with α-CD3/CD28 antibodies, flow cytometry", "format": "cell-based, C57BL/6J mice", "procedure": "For surface marker and intracellular cytokine staining of T cells, the cells were first restimulated with a cell stimulation mixture with protein transport inhibitors (eBioscience, catalog #00-4975-03) for 4 h in cRPMI at 37° C. They then underwent live/dead and surface marker staining as earlier. For intracellular cytokine staining, cells were permeabilized and fixed using either IC Fixation buffer for cytokine analysis (eBioscience, 00-8222-49) or FoxP3 fixation/permeabilization buffer for transcription factor analysis (eBioscience, 00-5521-00) after manufacturer recommended protocol and incubated with specific conjugated antibodies for the specified proteins in permeabilization buffer for 1 h.\nSpleens were harvested from 6-10-wk-old female C57BL/6J mice, and single-cell suspensions were generated in FACS buffer by disrupting spleens with the plunger of a syringe over a 70-μm nylon cell strainer (BD Falcon), pelleting cells by centrifugation (500×g for 8 min), and resuspending in fresh FACS buffer. Naive CD4^+ cells were then isolated by negative selection using an isolation kit from STEMCELL Technologies (catalog #19765).\nTissue culture plates were coated with α-CD3 antibody (BD Biosciences) by incubating them with 0.25-1.0 m/mL of antibody diluted in sterile PBS overnight at 4° C. or for 2-4 h at 37° C. The antibody solution was then removed, plates were washed once with sterile PBS, and naive CD4^+ T cells were seeded along with 0.25-1.0 m/mL α-CD28 antibody (BD Biosciences) in the presence or absence of the indicated doses of bryo-1. The cells were cultured for 3 d and then analyzed by flow cytometry."}, "[2]": {"test_system": "EAE (MOG35-55 immunized mice)", "assay": "EAE, late treatment initiated at day 28 post-immunization, clinical scoring", "format": "in vivo, C57BL/6J mice", "procedure": "as §1\nBryo-1 was prepared by initially dissolving in 100% ethanol and then further diluting to 20% ethanol and 1% DMSO in PBS. The final concentration of bryo-1 was […] Mice were treated by i.p. injection of […] bryo-1 or an equal volume of vehicle control (20% ethanol and 1% DMSO in PBS) 3 d per week (Monday, Wednesday, Friday).\nIn a third set of experiments, mice were randomized and treatment was begun on day 28 post-immunization, more than 10 d after peak disease and once motor deficits had reached a stable plateau.\nIn another set of mice, to determine whether bryo-1 could reverse established neurologic deficits in EAE, mice were randomized and began treatment on day 28 post-immunization, more than 10 d after peak disease and once motor deficits had reached a stable plateau (FIG. 2C). […] Treatment was continued for just more than 3 wk and discontinued on day 51 post-immunization."}, "LPS-stimulated BMDCs": {"test_system": "LPS-stimulated BMDCs", "assay": "BMDC cytokine secretion by ELISA", "format": "cell-based, C57BL/6J mice", "procedure": "BMDCs were generated as described in Lutz, “An advanced culture method for generating large quantities of highly pure dendritic cells from mouse bone marrow,” 1999, J. Immunol. Methods 223:77-92, with minor modifications. Briefly, femurs were removed from 6-10-wk-old female C57BL/6J mice, cut on both ends, and marrow flushed with PBS. Bone marrow cells were then pelleted by centrifugation (500×g for 8 min), resuspended in red blood cell lysis buffer (Sigma) for 1 min, and quenched with excess PBS. After another centrifugation, cells were resuspended in complete RPMI (cRPMI) media consisting of RPMI-1640 with GlutaMAX™ supplement (Thermo Fisher Scientific) supplemented with 10% FBS, penicillin-streptomycin (Gibco), and 50 μM 2-mercaptoethanol (Sigma). On day 0, ˜2×10^6 cells were then seeded per 100-mm plate in 10 mL media containing 20 ng/mL rmGM-CSF (Peprotech). On day 3, an additional 10 mL fresh cRPMI media containing 20 ng/mL rmGM-CSF was added to each plate. On day 6, half the culture supernatant from each plate was removed and centrifuged, and the pelleted cells resuspended in 10 mL fresh cRPMI with 20 ng/mL rmGM-CSF and added back to the plates. On day 8, all nonadherent cells (representing the BMDC fraction) were collected, pelleted by centrifugation, resuspended in fresh cRPMI media with 20 ng/mL rmGM-CSF, and plated into 24-well dishes. These BMDCs were then treated overnight with or without LPS 100 ng/mL plus the indicated doses of bryo-1. The following day (day 9), these cells were then assayed by flow cytometry or cytokine ELISA.\nAfter overnight treatment of BMDCs or mPMs with LPS 100 ng/mL±bryo-1, culture supernatants were collected and cytokine production was assayed using ELISA kits for IL-12 p70 (catalog #88-7121-22), IL-6 (catalog #88-7064-22), and IL-10 (catalog #88-7105-22) purchased from eBioscience, according to manufacturer's instructions. Plates were read at 450 nm on a tabletop plate reader."}, "[3]": {"conditions": "200 nM, cells stimulated with 0.25 μg/mL of α-CD3 and α-CD28 antibodies, 3 d"}},
  "note": "Entries after “also recorded” stand apart in the source; their conditions may differ.",
  "data": [
    {"smiles": "CCC/C=C/C=C/C(=O)OC1/C(=C/C(=O)OC)CC2CC(C(C)O)OC(=O)CC(O)CC3CC(OC(C)=O)C(C)(C)C(O)(CC4C/C(=C/C(=O)OC)CC(/C=C/C(C)(C)C1(O)O2)O4)O3", "note": "(stereo not shown) [bryo-1, Bryostatin-1]", "values": [
      {"measurement": "onset of EAE (clinical course)", "setting": "[1]", "result": "abolished the onset of EAE"},
      {"measurement": "expression of regulatory T-cell marker FoxP3", "setting": "naive CD4+ lymphocytes; [3]", "result": "increased expression"},
      {"measurement": "up-regulation of CD44", "setting": "naive CD4+ lymphocytes; [3]", "result": "inhibited up-regulation"},
      {"measurement": "up-regulation of IFNγ", "setting": "naive CD4+ lymphocytes; [3]", "result": "inhibited up-regulation"},
      {"measurement": "effects on CD44, IFNγ and FoxP3 with stronger T-cell stimulation", "setting": "naive CD4+ lymphocytes; of α-CD3/CD28", "result": "these effects were lost"},
      {"measurement": "clinical scores after discontinuation vs vehicle-treated group", "setting": "[2]; after discontinuation at day 51, followed through day 71", "result": "remained significantly lower; also recorded: remained below those of vehicle-treated mice"},
      {"measurement": "clinical scores throughout the treatment period and for several days after discontinuation", "setting": "[2]; treatment day 28 to day 51 post-immunization", "result": "steadily improved"},
      {"measurement": "time after discontinuing at which neurologic deficits worsened", "setting": "[2]; treatment discontinued on day 51 post-immunization", "result": "approximately 1 wk"},
      {"measurement": "time to improvement after treatment initiation", "setting": "[2]; treatment started day 28 post-immunization", "result": "within a week of treatment initiation"},
      {"measurement": "established motor deficits", "setting": "[2]; treatment started day 28 post-immunization, 30 μg/kg i.p. 3 d per week", "result": "reversed motor deficits"},
      {"measurement": "LPS-induced secretion of IL-12", "setting": "LPS-stimulated BMDCs; BMDCs, LPS 100 ng/mL, bryo-1 10 nM, overnight", "result": "abrogated"},
      {"measurement": "secretion of IL-10", "setting": "LPS-stimulated BMDCs; BMDCs, LPS 100 ng/mL, overnight", "result": "significantly augmented"},
      {"measurement": "concentration with direct anti-inflammatory effects on DCs and macrophages (as low as)", "setting": "LPS-stimulated BMDCs; DCs and macrophages", "result": 10, "unit": "nM"}
    ]}
  ]
}
